{"source": "patent US11780827B2", "about": "“Substituted 3-phenoxyazetidin-1-yl-pyrazines” (Boehringer Ingelheim International GmbH, priority 2020, dated 2023)"}
{"target": "T1, human GPR52 (Homo sapiens, UniProt Q9Y2T5)", "T1 construct": "expressed in transfected cells; host or cells: CHO-K1", "T1 sequence (Q9Y2T5 whole entry)": "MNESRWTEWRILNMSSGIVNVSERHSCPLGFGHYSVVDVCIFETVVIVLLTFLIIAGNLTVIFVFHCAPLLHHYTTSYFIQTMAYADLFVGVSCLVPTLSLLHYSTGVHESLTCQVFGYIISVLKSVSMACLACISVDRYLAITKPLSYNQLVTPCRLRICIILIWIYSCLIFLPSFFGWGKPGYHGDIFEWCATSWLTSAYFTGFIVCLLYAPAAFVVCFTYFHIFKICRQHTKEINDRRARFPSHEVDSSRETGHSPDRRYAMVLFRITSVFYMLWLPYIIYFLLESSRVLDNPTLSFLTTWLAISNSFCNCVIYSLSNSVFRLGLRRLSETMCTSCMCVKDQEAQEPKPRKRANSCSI", "experiment": "HTRF assay for direct cAMP measurement", "assay_type": "cell-based", "settings": "CHO-K1 cells stably expressing recombinant human GPR52, mean EC50", "experimental": "Homogeneous Time-Resolved Fluorescence (HTRF) Assay for Direct cAMP Measurement.\nHTRF cAMP assays were performed using commercially available assay kits according to the manufacturer's instructions (cAMP Dynamic 2 Assay Kit; #62AM4PEJ, Cisbio Bioassays, Bedford, Mass.). An aliquot of CHO-K1 cells stably expressing recombinant human GPR52 is thawed and resuspended in cell buffer (1×PBS (w/o Ca^2+/Mg^2+)) at a density of 4×10^5 cells per mL Test compounds were solubilized in DMSO to 10 mM stock solutions and serially diluted in DMSO using 6-fold dilutions to generate 8-point dose response curves. These serially diluted samples were then diluted 1:50 in compound dilution buffer (1×PBS (w/o Ca^2+/Mg^2+) containing 0.5 mM IBMX, 0.1% BSA) to achieve a 4× stock. The diluted compounds were transferred (5 μL per well) in duplicate to the 384-well assay plate (Optiplate #6007290, PerkinElmer, Waltham, Mass.). Both a positive (reference compound) and negative (non-stimulated vehicle) control are included in each assay run in column 23. The cell suspension was subsequently dispensed into the 384-well assay plates at 15 μL per well (6000 cells) such that the compound was diluted to 1×. […] After a one-hour incubation at room temperature, 10 μL of cAMP D2 reagent followed by 10 μL of cryptate reagent (provided in the Cisbio kit) was added to each well. Plates were then incubated at room temperature for one hour prior to reading. Time-resolved fluorescence measurements were collected on an EnVision® HTRF plate reader (PerkinElmer, Waltham, Mass.). Counts from the plate reader were fit to the cAMP standard curve included on each plate to determine the amount of cAMP in each test well. The % control was calculated based on the positive control set at […]. Dose-response curves were generated from the cAMP data and analyzed using a nonlinear least squares curve-fitting program to obtain EC50 values.", "units": {"EC50": "nM"}}
{"smiles": "O=C(Nc1ccncn1)c1nccnc1N1CC(Oc2cc(F)c(F)c(F)c2)C1", "note": "[Example 42]", "EC50": 23}
{"smiles": "O=C(Nc1ccnnc1)c1nccnc1N1CC(Oc2cc(F)cc(F)c2)C1", "note": "[Example 3]", "EC50": 19}
{"smiles": "CCc1cc(NC(=O)c2nccnc2N2CC(Oc3cc(F)cc(F)c3)C2)cnn1", "note": "[Example 24]", "EC50": 6}
{"smiles": "CCc1cc(NC(=O)c2nccnc2N2CC(Oc3cc(F)cc(Cl)c3)C2)cnn1", "note": "[Example 18]", "EC50": 6}
{"smiles": "CCc1cc(NC(=O)c2nccnc2N2CC(Oc3cc(F)cc(C(F)F)c3)C2)ncn1", "note": "[Example 39]", "EC50": 12}
{"smiles": "CCc1cc(NC(=O)c2nccnc2N2CC(Oc3ccc(F)c(Cl)c3)C2)cnn1", "note": "[Example 19]", "EC50": 4}
{"smiles": "O=C(Nc1ccncn1)c1nccnc1N1CC(Oc2ccc(F)c(Cl)c2)C1", "note": "[Example 44]", "EC50": 37}
{"smiles": "O=C(Nc1ccncn1)c1nccnc1N1CC(Oc2cc(F)c(F)c(Cl)c2)C1", "note": "[Example 41]", "EC50": 12}
{"smiles": "O=C(Nc1cc(C(F)(F)F)ncn1)c1nccnc1N1CC(Oc2ccc(F)c(F)c2)C1", "note": "[Example 46]", "EC50": 7}
{"smiles": "Cc1cc(NC(=O)c2nccnc2N2CC(Oc3cc(F)cc(C(F)(F)F)c3)C2)ncn1", "note": "[Example 31]", "EC50": 17}
{"smiles": "O=C(Nc1ccnnc1)c1nccnc1N1CC(Oc2cc(F)c(F)c(Cl)c2)C1", "note": "[Example 8]", "EC50": 4}
{"smiles": "CCc1cc(NC(=O)c2nccnc2N2CC(Oc3cc(F)cc(C(F)F)c3)C2)cnn1", "note": "[Example 22]", "EC50": 7}
{"smiles": "CCc1cc(NC(=O)c2nccnc2N2CC(Oc3cc(F)cc(Cl)c3)C2)ncn1", "note": "[Example 35]", "EC50": 8}
{"smiles": "Cc1cc(NC(=O)c2nccnc2N2CC(Oc3cc(F)cc(F)c3)C2)ncn1", "note": "[Example 28]", "EC50": 12}
{"smiles": "O=C(Nc1ccnnc1)c1nccnc1N1CC(Oc2cc(F)cc(C(F)(F)F)c2)C1", "note": "[Example 1]", "EC50": 9}
{"smiles": "O=C(Nc1cc(C(F)(F)F)ncn1)c1nccnc1N1CC(Oc2ccc(F)c(Cl)c2)C1", "note": "[Example 45]", "EC50": 14}
{"smiles": "Cc1cc(NC(=O)c2nccnc2N2CC(Oc3ccc(F)c(Cl)c3)C2)cnn1", "note": "[Example 16]", "EC50": 4}
{"smiles": "O=C(Nc1ccnnc1)c1nccnc1N1CC(Oc2ccc(F)c(Cl)c2)C1", "note": "[Example 7]", "EC50": 10}
{"smiles": "CCc1cc(NC(=O)c2nccnc2N2CC(Oc3cc(F)c(F)c(F)c3)C2)cnn1", "note": "[Example 20]", "EC50": 5}
{"smiles": "CCc1cc(NC(=O)c2nccnc2N2CC(Oc3cc(F)cc(C(F)(F)F)c3)C2)ncn1", "note": "[Example 34]", "EC50": 30}
{"smiles": "CCc1cc(NC(=O)c2nccnc2N2CC(Oc3ccc(F)c(F)c3)C2)ncn1", "note": "[Example 37]", "EC50": 3}
{"smiles": "Cc1cc(NC(=O)c2nccnc2N2CC(Oc3cc(F)cc(C(F)(F)F)c3)C2)cnn1", "note": "[Example 9]", "EC50": 14}
{"smiles": "O=C(Nc1ccncn1)c1nccnc1N1CC(Oc2ccc(F)c(F)c2)C1", "note": "[Example 43]", "EC50": 45}
{"smiles": "Cc1cc(NC(=O)c2nccnc2N2CC(Oc3ccc(F)c(Cl)c3)C2)ncn1", "note": "[Example 25]", "EC50": 4}
{"smiles": "CCc1cc(NC(=O)c2nccnc2N2CC(Oc3cc(F)cc(C(F)(F)F)c3)C2)cnn1", "note": "[Example 17]", "EC50": 11}
{"smiles": "CCc1cc(NC(=O)c2nccnc2N2CC(Oc3ccc(F)c(Cl)c3)C2)ncn1", "note": "[Example 40]", "EC50": 5}
{"smiles": "CCc1cc(NC(=O)c2nccnc2N2CC(Oc3cc(F)c(F)c(Cl)c3)C2)ncn1", "note": "[Example 38]", "EC50": 9}
{"smiles": "Cc1cc(NC(=O)c2nccnc2N2CC(Oc3cc(F)cc(Cl)c3)C2)ncn1", "note": "[Example 30]", "EC50": 8}
{"smiles": "CCc1cc(NC(=O)c2nccnc2N2CC(Oc3cc(F)c(F)c(Cl)c3)C2)cnn1", "note": "[Example 23]", "EC50": 6}
{"smiles": "CCc1cc(NC(=O)c2nccnc2N2CC(Oc3cc(F)cc(F)c3)C2)ncn1", "note": "[Example 33]", "EC50": 10}
{"smiles": "O=C(Nc1ccnnc1)c1nccnc1N1CC(Oc2cc(F)cc(Cl)c2)C1", "note": "[Example 2]", "EC50": 9}
{"smiles": "Cc1cc(NC(=O)c2nccnc2N2CC(Oc3cc(F)cc(C(F)F)c3)C2)ncn1", "note": "[Example 27]", "EC50": 11}
{"smiles": "O=C(Nc1ccnnc1)c1nccnc1N1CC(Oc2ccc(F)c(F)c2)C1", "note": "[Example 5]", "EC50": 10}
{"smiles": "CCc1cc(NC(=O)c2nccnc2N2CC(Oc3cc(F)c(F)c(F)c3)C2)ncn1", "note": "[Example 36]", "EC50": 6}
